In US11541030B2, “Methods for the treatment of inflammation associated with infection” (NOXOPHARM LIMITED, priority 2020, dated 2023):

Columns and labels:
[1] = tested on: basal Sting signalling; test: Interferon stimulated genes in primary BMDMs from Trex1-mutant mice (RT-qPCR); details: overnight 1.25 and 2.5 μM IDX
[2] = tested on: TC-1 cells (cGAS-STING); test: CPT-induced IL-6 in TC-1 cells; details: TC-1, 0.5 μM CPT 48 hours; H151 1.8 μM, IDX 2.5 μM
Method: FIG. 7: Mouse TC-1 cells were plated in the presence of 0.5 μM CPT for 48 hours, with the following compounds, where indicated: H151 (1.8 μM), IDX (2.5 μM). IL-6 levels were determined by ELISA. Data shown are averaged from 2 (for H151) or 3 independent experiments (conducted with biological replicate), ±standard deviation (SD). […] Each point represents the mean data for each independent experiment; the column represents the mean of the experiments. *, P≤0.05; **, P≤0.01; ***, P≤0.001; ****, P≤0.0001, ns: non-significant.
Cell culture and reagents.
Murine IP-10 production and IL-6 in supernatant of iBMMs and TC-1 was quantified using Mouse CXCL10/IP-10/CRG-2 Duo Set ELISA (R&D systems, #Dy466) and the IL6 OptE1A ELISA Kit mouse (BD Bioscience, #555240), respectively, according to the manufacturer's protocol. Similarly, human IP-10, TNF-α and IL-6 production was measured in cell supernatants using human IP-10 OptEIA ELISA kit (BD Biosciences, #555157), human OptEIA TNF-α kit (BD Bioscience, #555212) and human IL-6 OptEIA ELISA Set (BD Biosciences, #555220). Tetramethylbenzidine substrate (ThermoFisher Scientific) was used for quantification of the cytokines on a Fluostar OPTIMA (BMG LABTECH) plate-reader.

[3] = molecular target: T1, human STING (Homo sapiens, UniProt Q86WV6, G230A/H232R/R293Q/R71H); test: STING agonist-driven IP-10 and IFNβ in THP-1 cells; assay type: cell-based; details: THP-1, 2.5 uM IDX 1 hour
T1 construct: endogenous in cells; host or cells: human THP-1 cells
T1 sequence (Q86WV6 whole entry R71H/G230A/H232R/R293Q): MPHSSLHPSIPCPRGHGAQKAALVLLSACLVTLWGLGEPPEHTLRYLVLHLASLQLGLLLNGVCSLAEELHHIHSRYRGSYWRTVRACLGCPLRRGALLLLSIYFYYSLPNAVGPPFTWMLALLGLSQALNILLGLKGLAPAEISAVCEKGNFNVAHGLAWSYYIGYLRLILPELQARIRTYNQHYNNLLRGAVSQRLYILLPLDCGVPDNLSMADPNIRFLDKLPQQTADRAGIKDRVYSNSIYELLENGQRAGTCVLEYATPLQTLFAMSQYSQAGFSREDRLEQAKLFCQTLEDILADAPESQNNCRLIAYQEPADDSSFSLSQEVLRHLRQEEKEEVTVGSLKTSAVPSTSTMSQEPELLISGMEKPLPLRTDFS

[4] = tested on: TLR4 (LPS); test: LPS-induced IL-6 in hTERT immortalised foreskin fibroblasts; assay type: cell-based, human; details: 2.5 uM IDX or H151 pre-treatment, 7 h LPS (100 ng/ml)
Method: (§1) IL-6 levels were measured in the supernatants by ELISA.
(§2) To determine the specificity of IDX on STING signalling, human hTERT immortalised foreskin fibroblasts which have functional TLR4 (LPS) and TLR3 (PolyI:C) responsiveness were tested. […] (FIG. 6).

[5] = tested on: influenza A virus (IAV) driven lung inflammation; test: Influenza A virus infection in lung TGF-β1 transgenic mice; assay type: in vivo, mouse; details: 5 mg/kg daily from day 1 after IAV infection until day 3
[6] = tested on: STING signalling (STING, TBK1, IRF3, p-65); test: Western blotting of DMXAA-stimulated immortalised mouse bone marrow derived macrophages; assay type: cell-based; details: 2.5 uM IDX 1 h
Method: FIG. 11: Immortalised mouse bone marrow derived macrophages were pre-treated for 1 hour with 2.5 uM IDX prior to stimulation for an indicated amount of time with DMXAA (50 ug/mL), and then lysed and analysed by Western blotting using specific total or phospho-antibody. The results on STING and p-STING are representative of 3 independent experiments.
Western Blotting: Following lysis in RIPA buffer supplemented with complete mini protease inhibitor cocktail (Sigma #4693124001) and phosSTOP inhibitor (Sigma #4906845001), the samples were subjected to SDS-Page analyses, on NuPAGE 4%-12% Bis-Tris Protein Gels (Thermo Scientific) with MES or MOPS running buffer (Thermo Scientific), as previously reported (4). Anti-Sting (#13647), Phospho-Sting (#72971), TBK1 (#3013), phospho-TBK1 (#5483), IKKe (#3416), phospho-IKKe (#8766), IRF-3 (#4302), phosphor-IRF3 (#4947), p-65 (#4764), phospho-p-65 (#3033) antibodies were all from Cell Signalling. Anti-beta-Actin antibodies (#Ab49900) were from Abcam.
To further determine the direct activity of IDX on STING, immortalised mouse bone marrow derived macrophages were stimulated with DMXAA for 1, 2 or 3 hours in the presence of IDX (FIG. 11). The cell lysates were analysed by Western blotting using specific total or phospho-antibody against STING, TBK1, IRF3, and p-65 (FIG. 11). In support of its inhibitory activity on downstream STING signaling, IDX decreased phosphorylation of TBK1 and IRF3 and also STING itself. […] While these effects could all be dependent on TBK1 inhibition by IDX, the inventors also observed decreased p-65 phosphorylation that was not dependent on TBK1 in this cell system (4).

[7] = tested on: TLR3 (PolyI:C); test: PolyI:C-induced IL-6 in hTERT immortalised foreskin fibroblasts; assay type: cell-based, human; details: 2.5 uM IDX or H151 pre-treatment, 7 h polyI:C (20 ug/ml)
Method: as §1, §2

[8] = tested on: human STING (PBMCs); test: STING agonist-induced IL-6 and TNFα in human PBMCs; details: PBMCs from two donors, 2.5 μM IDX pre-treatment, GSK STING agonist 100 nM 6 hours
Method: The supernatants were collected and analysed for IL-6 and TNFα production by ELISA. Data shown are as average from 2 independent donors (conducted with biological replicate for each donor), ±SEM.
Similarly, human IP-10, TNF-α and IL-6 production was measured in cell supernatants using human IP-10 OptEIA ELISA kit (BD Biosciences, #555157), human OptEIA TNF-α kit (BD Bioscience, #555212) and human IL-6 OptEIA ELISA Set (BD Biosciences, #555220). Tetramethylbenzidine substrate (ThermoFisher Scientific) was used for quantification of the cytokines on a Fluostar OPTIMA (BMG LABTECH) plate-reader.

[9] = Fresh versus frozen DMSO stock comparison; assay type: physicochemical; details: 40 mM stock in DMSO kept frozen at −20C
[10] = tested on: human hTERT fibroblasts; test: Cell proliferation of hTERT fibroblasts; assay type: cell-based; details: 10 μM IDX, 72 hours
[11] = tested on: basal STING signalling in Trex1-mutant mice; assay type: in vivo, mouse; details: 2 mg/kg i.p. daily for 10 days
[12] = tested on: cGAS/STING (mouse STING-mCherry), IFN-β-luciferase reporter; test: IFN-β-luciferase reporter in HEK-Sting cells overexpressing cGAS-GFP; details: different doses overnight
Method: FIG. 1: Human HEK cells constitutively expressing mouse STING-mCherry were co-transfected with cGAS-GFP and an interferon (IFN)beta-luciferase (A) or an NF-κB-Luc reporter (B) reporter for 3 h prior to being treated overnight with indicated concentration of IDX (in equal volume of DMSO). Firefly luciferase was quantified the next day. Data shown are averaged from 2 (B) or 3 (A) independent experiments in biological triplicate, relative to DMSO only condition control (±SEM).
Cell culture and reagents.
Cell transfections: HEK Sting cells were reverse transfected with 200 ng of IFNb-Luciferase reporter and 400 ng of cGAS-GFP overexpression vector, using 1.8 ul lipofectamine 2000 and ˜600,000 cells, per well of a 96 well plate (as previously reported (8)). After 3 h, the cells were collected and aliquoted in 12 wells of a 96 well plate (for each well of a 6 well plate), and treated with indicated doses of IDX overnight, prior lysis in 40 ul of Glo lysis buffer the next day (Promega). Luciferase assays were carried out using the Promega Luciferase Assay System on a on a Fluostar OPTIMA (BMG LABTECH) plate-reader.

[13] = molecular target: T2, mouse STING (Mus musculus, UniProt Q3TBT3); test: DMXAA-induced ISRE-luciferase in L929 cells; details: 2.5 uM IDX; DMXAA up to 100 ug/ml
T2 sequence (Q3TBT3 1-378): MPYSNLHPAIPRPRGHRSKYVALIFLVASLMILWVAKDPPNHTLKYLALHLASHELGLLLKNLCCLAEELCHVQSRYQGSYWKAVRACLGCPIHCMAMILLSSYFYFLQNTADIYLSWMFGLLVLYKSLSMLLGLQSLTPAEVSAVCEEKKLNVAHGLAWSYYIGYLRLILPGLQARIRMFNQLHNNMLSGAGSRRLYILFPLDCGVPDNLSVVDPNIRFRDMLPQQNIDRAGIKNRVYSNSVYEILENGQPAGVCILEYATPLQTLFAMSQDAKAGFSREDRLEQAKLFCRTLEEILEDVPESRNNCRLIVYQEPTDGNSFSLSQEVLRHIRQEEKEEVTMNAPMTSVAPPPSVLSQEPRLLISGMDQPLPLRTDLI
Method: FIG. 2: Mouse L929 cells stably expressing an IFN-stimulated responsive element (ISRE)-luciferase reporter were pre-treated for 1 h with indicated doses of IDX, prior an 8 h stimulation with 20 ug/ml DMXAA. Cells were lysed and firefly luciferase was quantified at the end of the experiment. Data shown are averaged from 2 independent experiments in biological triplicate, relative to DMXAA and DMSO only condition control (±SEM).
Luciferase assays were carried out at 8 hours. Data were normalised to DMSO+DMXAA only condition, and are shown as averages from 3 independent experiments (conducted with biological replicate), ±SD. Each point represents the mean data for each independent experiment; the column represents the mean of the experiments.
To determine whether IDX could inhibit STING signalling more directly, mouse L929 cells stably expressing an IFN-stimulated-responsive luciferase (ISRE-Luc) were pretreated with IDX at various doses for 1 h, prior to DMXAA stimulation for 8 h (FIG. 2).
Using mouse L929 cells stably expressing an interferon (IFN)-stimulated responsive element (ISRE)-Luciferase construct referred to as LL171 cells (2) and stimulated with the murine STING agonist DMXAA, the inventors speculated that the DMXAA-induced IFN-β production and downstream ISRE-Luciferase expression would only be minimally impacted by IDX if it selectively acted on NF-κB signalling.

For `Oc1ccc(C2=Cc3ccc(O)cc3OC2)cc1` [IDX, 2H-1-Benzopyran-7-0,1,3-(4-hydroxyphenyl)], the Ifih1 expression [1] was “dose-dependent inhibition”, the Ifit1 expression [1] was “dose-dependent inhibition” and the Rsad2 expression [1] was “dose-dependent inhibition”. The “CPT-induced IL-6 production” value [2] was “significantly reduced”, the “IP-10 production driven by ADU-S100” value ([3]; ADU-S100 30 uM 6 hours) was “strongly inhibited” and the “IP-10 production driven by synthetic STING agonist (GSK)” value ([3]; GSK agonist 100 nM 6 hours) was “strongly inhibited”. For the same compound, the “reduction of IFNβ production” value ([3]; synthetic STING agonist (GSK) 100 nM 6 hours, IFNβ ELISA) was ~50%, the “IL-6 production, LPS stimulation” value [4] was “only modestly reduced” and the “IL-6 in bronchial alveolar lavages” value [5] was “significantly reduce”. For the same compound, the p-65 phosphorylation ([6]; DMXAA 50 ug/mL 1, 2 or 3 hours) was “decreased”, the “phosphorylation of IRF3” value ([6]; DMXAA 50 ug/mL 1, 2 or 3 hours) was “decreased” and the “phosphorylation of STING” value ([6]; DMXAA 50 ug/mL 1, 2 or 3 hours) was “decreased”. The “phosphorylation of TBK1” value ([6]; DMXAA 50 ug/mL 1, 2 or 3 hours) was “decreased”, the “shift in size of total STING (STING activation)” value ([6]; DMXAA 50 ug/mL, 3-hour period) was “attenuated” and the “IL-6 production, PolyI:C stimulation” value [7] was “only modestly reduced”. For the same compound, the IL-6 production [8] was “reduced”, the TNFα production [8] was “reduced” and the “activity of fresh versus frozen IDX stock” value [9] was “did not show any difference of activity”. For the same compound, the “impact on cell proliferation” value [10] was “little impact”, the “Ifi44 expression in the spleen” value [11] was “decreased” and the “Ifih1 expression in the spleen” value [11] was “decreased”. The “Isg15 expression in the spleen” value [11] was “significant decreased”, the “Rsad2 expression in the spleen” value [11] was “decreased” and the “serum TNFα levels” value ([11]; compared to PBS controls) was “decrease”. The “inhibition of IFN-β-luciferase” value [12] was “potent inhibitor” and the “effect of increasing DMXAA on inhibition of ISRE-Luc” value [13] was “did not reverse the inhibition”.

For `CC(=O)Oc1ccccc1C(=O)O` [aspirin], the “CPT-induced IL-6 production” value [2] was “strongly reduced”.

In the case of `CCc1ccc(NC(=O)Nc2c[nH]c3ccccc23)cc1` [H151, reference compound], the “CPT-induced IL-6 production” value [2] was “strongly reduced”, the “IL-6 production, LPS stimulation” value [4] was “only modestly reduced” and the “IL-6 production, PolyI:C stimulation” value [7] was “only modestly reduced”.
